Reference: patent US9512072B2, “Biodegradable computed tomography contrast agents” (Case Western Reserve University, priority 2013, dated 2016)

Test system: BALB/c mice
Test: In vivo blood pool CT imaging on micro-CT scanner
Set-up: species or system mouse
Conditions: 350 mg-I/kg i.v.
Experimental: The polymeric contrast agents and the control contrast agent, iodixanol, were evaluated with BALB/c mice (18-22 g body weight, 6 mice per agent). All the mice were scanned on the same machine as the in vitro detection. The images were obtained at an x-ray voltage of 80 kVp, an anode current of 500 μA and an exposure time of 200 ms for every rotational steps (total rotation degree is 360 and rotation steps are 180). The field of view was […]. Images were reconstructed in a 1024 pixel×1024 pixel grid with a pixel size of 18 μm×18 μm. […]
CT values are expressed in Hounsfield Units (HU) and were obtained per organ by drawing volumetric regions of interest (RIOs). […] The average HU values and the standard deviation were calculated from the data with 3 ROIs per organ. The CT data was analyzed to determine the contrast enhancement of different agents at various time points post-injection. In vivo CT values of the regions of interest, such as heart, blood, liver and bladder, were measured to study the dynamic enhancement of different organs. […]
The effectiveness of the iodinated polydisulfides for in vivo contrast enhanced CT imaging was assessed in BALB/c mice (18-22 g body weight, 6 mice per agent) on a micro-CT scanner with iodixanol as a control agent. […]

For `CC(=O)N(CC(O)CN(C(C)=O)c1c(I)c(C(=O)NCC(O)CO)c(I)c(C(=O)NCC(O)CO)c1I)c1c(I)c(C(=O)NCC(O)CO)c(I)c(C(=O)NCC(O)CO)c1I` (centres unmarked) [iodixanol], the “vascular enhancement and delineation” value (10 min after injection) was “did not produce any enhancement” and the “blood signal at its peak” value (pre-injection 27±30 HU) was 56±26 HU.
